Target: PDE10 (UniProt Q9Y233)
Experiment: PDE10 enzyme inhibition, IMAP TR-FRET assay (MPDE10A7 Enzyme Activity and Inhibition)
Type: biochemical
Details: IC50 class against PDE10; read-out: IC50
In short: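 IMAP TR-FRET read-out of PDE10 hydrolysis of fluorescein-cAMP or -cGMP (60 min, room temperature), after a 30 min compound-enzyme preincubation. Enzyme source was PDE10A or tissue homogenate. Averaged IC50s are reported as five range classes.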

| SMILES | IC50 |
| --- | --- |
| CC#CCOc1nccnc1Oc1ccc(C(=O)c2nc3ccccc3[nH]2)cc1 [Example 169, (1H-benzo[d]imidazol-2-yl)(4-(3-(but-2-ynyloxy)pyrazin-2-yloxy)phenyl)methanone] | 100 to 250 nM |
| N#CC1CN(c2nccnc2Oc2ccc(Nc3nc4ccccc4s3)cc2)C1 [Example 93, 1-(3-(4-(benzo[d]thiazol-2-yl-amino)phenoxy)pyrazin-2-yl)-azetidine-3-carbonitrile] | 25 to 100 nM |
| COCC1CCN(c2nccnc2Oc2ccc(Nc3nc4ccccc4s3)cc2)C1 (racemic) [Example 88, N-(4-(3-(3-(methoxymethyl)-pyrrolidin-1-yl)pyrazin-2-yl-oxy)phenyl)benzo[d]thiazol-2-amine] | < 25 nM |
| FCCN1CCC(c2nccnc2Oc2ccc(Nc3nc4ccccc4s3)cc2)CC1 [Example 236, N-(4-(3-(1-(2-fluoroethyl)piperidin-4-yl)pyrazin-2-yloxy)phenyl)benzo [d]thiazol-2-amine] | < 25 nM |
| CN(c1ccc(Oc2nccnc2C2CCOCC2)cc1)c1nc2ccccc2s1 [Example 201, N-METHYL-N-(4-(3-(TETRAHYDRO-2H-PYRAN-4-YL)PYRAZIN-2-YLOXY)PHENYL)BENZO[D]THIAZOL-2-AMINE] | < 25 nM |
| CC(=O)N1CCC(c2nccnc2Oc2ccc(Nc3nc4ccccc4s3)cc2)CC1 [Example 225, 1-(4-(3-(4-(BENZO[D]THIAZOL-2-YLAMINO)PHENOXY)PYRAZIN-2-YL)PIPERIDIN-1-YL)ETHANONE] | < 25 nM |
| COCC(=O)N1CCC(c2nccnc2Oc2ccc(C(=O)c3nc4ccccc4[nH]3)cc2)CC1 [Example 232, 1-(4-(3-(4-(1H-benzo[d]imidazole-2-carbonyl)phenoxy)pyrazin-2-yl)piperidin-1-yl)-2-methoxyethanone] | < 25 nM |
| O=C(c1ccc(Oc2nccnc2Cl)cc1)c1nc2ccc(F)cc2[nH]1 [Example 4, [4-(3-CHLORO-PYRAZIN-2-YLOXY)-PHENYL]-(6-FLUORO-1H-BENZOIMIDAZOL-2-YL)-METHANONE] | 1000 to 5000 nM |
| O=C(c1ccc(Oc2nccnc2-c2ccnc(C(F)(F)F)c2)cc1)c1nc2ccccc2[nH]1 [Example 104, (1H-BENZO[D]IMIDAZOL-2-YL)(4-(3-(2-(TRIFLUOROMETHYL)PYRIDIN-4-YL)PYRAZIN-2-YLOXY)PHENYL)METHANONE] | < 25 nM |
| COCC1CCCN(c2nccnc2Oc2ccc(Nc3nc4ccccc4s3)cc2)C1 (stereo not shown) [Example 98, N-(4-(3-(3-(methoxymethyl)-piperidin-1-yl)pyrazin-2-yloxy)-phenyl)benzo[d]thiazol-2-amine] | 25 to 100 nM |
| CN1CCC(c2nccnc2Oc2ccc(Nc3nc4ccccc4s3)cc2)CC1 [Example 237, N-(4-(3-(1-methylpiperidin-4-yl)pyrazin-2-yloxy)phenyl)benzo [d]thiazol-2-amine] | < 25 nM |
| COC(=O)C1CN(c2nccnc2Oc2ccc(Nc3nc4ccccc4s3)cc2)C1 [Example 83, methyl 1-(3-(4-(benzo[d]thiazol-2-ylamino)phenoxy)pyrazin-2-yl)azetidine-3-carboxylate] | < 25 nM |
| COc1cnccc1-c1nccnc1Oc1ccc(Nc2nc3ccccc3s2)cc1 [Example 149, N-(4-(3-(3-methoxypyridin-4-yl)pyrazin-2-yloxy)phenyl)benzo[d]thiazol-2-amine] | < 25 nM |
| Cn1c(C(=O)c2ccc(Oc3nccnc3C3CCOCC3)cc2)nc2ccccc21 [Example 184, (1-methyl-1H-benzo[d]imidazol-2-yl)(4-(3-(tetrahydro-2H-pyran-4-yl)pyrazin-2-yloxy)phenyl)methanone] | < 25 nM |
| c1cncc(-c2nccnc2Oc2ccc(Nc3nc4ccccc4s3)cc2)c1 [Example 148, N-(4-(3-(pyridin-3-yl)pyrazin-2-yloxy)phenyl)benzo[d]thiazol-2-amine] | < 25 nM |
| O=C(c1ccc(Oc2nccnc2OCc2ccncc2)cc1)c1nc2ccccc2[nH]1 [Example 176, (1H-benzo[d]imidazol-2-yl)(4-(3-(pyridin-4-ylmethoxy)pyrazin-2-yloxy)phenyl)methanone] | 100 to 250 nM |

Same assay, conditions: PDE10 enzyme inhibition; average IC50 data for each compound; read-out: Average IC50

| SMILES | IC50 |
| --- | --- |
| CCOc1nccnc1Oc1ccc(C(=O)c2nc3ccccc3[nH]2)cc1 | 46 nM |
| COc1cncc(-c2nccnc2Oc2ccc(C(=O)c3nc4ccccc4[nH]3)cc2)c1 [drawing 917] | 5.42 nM |
| COc1cc(-c2nccnc2Oc2ccc(C(=O)c3nc4ccccc4[nH]3)cc2)ccn1 [drawing 883] | 7.56 nM |
| C[C@@H](O)C(=O)N1CCC(c2nccnc2Oc2ccc(Nc3nc4ccccc4s3)cc2)CC1 (stereo in doubt) | 0.0455 nM |
| O=C(c1ccc(Oc2nccnc2C(=O)NCCO)cc1)c1nc2ccccc2[nH]1 [drawing 817] | 65.5 nM |
| O=C(c1ccc(Oc2nccnc2C2CCOCC2)cc1)c1nc2ccccc2[nH]1 [drawing 752] | 0.486 nM |
| COC(=O)[C@H]1CCN(c2nccnc2Oc2ccc(Nc3nc4ccccc4s3)cc2)C1 (stereo in doubt) | 23 nM |
| O=C(c1ccc(Oc2nccnc2N2CC[C@@H](O)C2)cc1)c1nc2ccccc2[nH]1 (stereo in doubt) | 7.6 nM |
| O=C(c1ccc(Oc2nccnc2C2CCCC2)cc1)c1nc2ccccc2[nH]1 [drawing 949] | 1.76 nM |
| O=C(c1ccc(Oc2nccnc2N2CCOCC2)cc1)c1nc2ncccc2[nH]1 | 11.6 nM |
| COc1ncccc1-c1nccnc1Oc1ccc(C(=O)c2nc3ccccc3[nH]2)cc1 [drawing 866] | 0.321 nM |
| COc1cccc(-c2nccnc2Oc2ccc(Nc3nc4ccccc4s3)cc2)c1 [drawing 740] | 96.1 nM |
| OC[C@@H]1CCN(c2nccnc2Oc2ccc(Nc3nc4ccccc4s3)cc2)C1 [drawing 732] | 2.89 nM |
| CCOC(=O)[C@H]1CCCN(c2nccnc2Oc2ccc(C(=O)c3nc4ccccc4[nH]3)cc2)C1 [drawing 831] | 0.843 nM |
| CN1CCC(c2nccnc2Oc2ccc(C(=O)c3nc4ccccc4[nH]3)cc2)=CC1=O [drawing 921] | 1.86 nM |
| FCCN1CCC(c2nccnc2Oc2ccc(Nc3nc4ccccc4s3)cc2)CC1 [drawing 962] | 3.24 nM |
| c1ccc2sc(Nc3ccc(Oc4nccnc4C4CCCC4)cc3)nc2c1 [drawing 948] | 4.96 nM |
| COCC1CCN(c2nccnc2Oc2ccc(Nc3nc4ccccc4s3)cc2)CC1 [drawing 741] | 39.5 nM |
| O=C(c1ccc(Oc2nccnc2Oc2ccccc2)cc1)c1nc2ccccc2[nH]1 [drawing 850] | 2120 nM |
| c1ccc2sc(Nc3ccc(Oc4nccnc4[C@H]4CCOC4)cc3)nc2c1 (stereo in doubt) | 2.03 nM |
| O=C(O)c1ccc(-c2nccnc2Oc2ccc(C(=O)c3nc4ccccc4[nH]3)cc2)cc1 [drawing 761] | 2.06 nM |

Same assay, conditions: PDE10 enzyme inhibition; chiral compounds separated from racemic mixtures; read-out: IC50

| SMILES | IC50 |
| --- | --- |
| CCOC(=O)[C@H]1CCCN(c2nccnc2Oc2ccc(C(=O)c3nc4ccccc4[nH]3)cc2)C1 [Example 264, (S)-ethyl 1-(3-(4-(1H-benzo[d]imidazole-2-carbonyl)phenoxy)pyrazin-2-yl)piperidine-3-carboxylate] | < 25 nM |
| COC(=O)[C@H]1CCN(c2nccnc2Oc2ccc(C(=O)c3nc4ccccc4[nH]3)cc2)C1 [Example 265, (S)-methyl 1-(3-(4-(1H-benzo[d]imidazole-2-carbonyl)phenoxy)pyrazin-2-yl)pyrrolidine-3-carboxylate] | < 25 nM |
| C[C@@H]1CN(c2nccnc2Oc2ccc(Nc3nc4ccccc4s3)cc2)CC(=O)N1 [Example 267, (R)-4-(3-(4-(benzo[d]thiazol-2-ylamino)phenoxy)pyrazin-2-yl)-6-methylpiperazin-2-one] | < 25 nM |

— patent US20120277209A1, “PYRAZINE COMPOUNDS AS PHOSPHODIESTERASE 10 INHIBITORS” (Amgen Inc., priority 2009, published 2012)
